By IC50 is commonly meant the point on the concentration scale where inhibition reaches its midpoint. A low value points to greater potency.

The values that follow come from patent publication US9012489B2, “Phenyl-3-aza-bicyclo[3.1.0]hex-3-yl-methanones and the use thereof as medicament” (Boehringer Ingelheim International GmbH, priority 2011, dated 2015).

For the assay, the target named is T1, GlyT1 transporter (Homo sapiens, UniProt P48067).
T1 construct: endogenously expressing the GlyT1 transporter; host or cells: SK-N-MC human neuroblastoma cells
T1 sequence (P48067 1-706): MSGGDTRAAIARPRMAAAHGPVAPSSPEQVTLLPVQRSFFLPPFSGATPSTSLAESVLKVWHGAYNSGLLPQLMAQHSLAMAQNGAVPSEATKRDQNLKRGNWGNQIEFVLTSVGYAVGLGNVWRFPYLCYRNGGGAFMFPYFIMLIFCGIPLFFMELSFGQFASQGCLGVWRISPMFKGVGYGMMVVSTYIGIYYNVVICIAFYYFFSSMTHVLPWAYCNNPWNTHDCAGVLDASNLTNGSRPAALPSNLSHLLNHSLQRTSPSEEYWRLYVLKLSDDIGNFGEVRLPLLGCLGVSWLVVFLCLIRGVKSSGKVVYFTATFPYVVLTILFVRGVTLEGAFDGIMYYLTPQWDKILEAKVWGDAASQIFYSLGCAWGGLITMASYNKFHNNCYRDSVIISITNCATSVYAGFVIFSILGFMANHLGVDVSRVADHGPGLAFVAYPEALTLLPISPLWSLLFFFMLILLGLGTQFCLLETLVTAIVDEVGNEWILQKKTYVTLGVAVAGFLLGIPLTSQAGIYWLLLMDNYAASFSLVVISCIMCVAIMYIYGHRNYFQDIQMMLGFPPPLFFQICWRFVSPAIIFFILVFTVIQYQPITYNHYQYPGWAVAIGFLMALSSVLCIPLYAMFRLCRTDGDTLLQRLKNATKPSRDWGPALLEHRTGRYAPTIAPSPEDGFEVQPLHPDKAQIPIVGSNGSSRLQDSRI
Kind of assay: GlyT1 assay: 3H-glycine uptake into SK-N-MC cells (Cytostar-T format). The note with it: glycine uptake in human SK-N-MC cells endogenously expressing GlyT1; 500 nM glycine, 1% DMSO, signal recorded over 60 min. The format is cell-based. The gist of the method: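 Uptake slopes, measured over 60 min from the linear kinetic range, give IC50 from 8 compound concentrations, with 10 μM RG-1678 setting background. Substrate is 500 nM glycine (250 nM ³H, 250 nM unlabelled) in HBSS/5 mM alanine, 1% DMSO, after roughly 5-10 min compound preincubation. Cells: confluent SK-N-MC endogenously expressing human GlyT1.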
With `C[C@H](Oc1ccc(S(C)(=O)=O)cc1C(=O)N1CC2CC2(c2cc(C(F)(F)F)on2)C1)C(F)(F)F` (single isomer, unassigned) [Example 48, [5-Methanesulfonyl-2-(2,2,2-trifluoro-1-methyl-ethoxy)-phenyl]-[1-(5-trifluoromethyl-isoxazol-3-yl)-3-aza-bicyclo[3.1.0]hex-3-yl]-methanone], it took 0.886 µM to reach half-maximal inhibition (IC50). As to `C[C@H](Oc1ccc(S(C)(=O)=O)cc1C(=O)N1CC2CC2(c2nccc(C(F)(F)F)n2)C1)C(F)(F)F` (mixture of isomers) [Example 15, [5-Methanesulfonyl-2-(2,2,2-trifluoro-1-methyl-ethoxy)-phenyl]-[1-(4-trifluoromethyl-pyrimidin-2-yl)-3-aza-bicyclo[3.1.0]hex-3-yl]-methanone], half-maximal inhibition (IC50) was put at 0.014 µM. On to `CS(=O)(=O)c1ccc(-n2ccc(C(F)(F)F)n2)c(C(=O)N2CC3CC3(c3noc(C(F)(F)F)n3)C2)c1` (racemic) [Example 141, [5-Methanesulfonyl-2-(3-trifluoromethyl-pyrazol-1-yl)-phenyl]-[1-(5-trifluoromethyl-[1,2,4]oxadiazol-3-yl)-3-aza-bicyclo[3.1.0]hex-3-yl]-methanone], for which 0.764 µM corresponded to half-maximal inhibition (IC50). Compared with the last compound, the IC50 is about 55-fold higher.

For the compound `Cc1c(C23CC2CN(C(=O)c2cc(S(C)(=O)=O)ccc2O[C@H](C)C(F)(F)F)C3)noc1C(F)(F)F` (mixture of isomers) [Example 160], the IC50 is 0.008 µM.

As for `CC(C)Oc1ccc(S(C)(=O)=O)cc1C(=O)N1CC2CC2(c2noc(C3(C(F)(F)F)CC3)n2)C1` (single isomer, unassigned) [Example 142, (2-Isopropoxy-5-methanesulfonyl-phenyl)-{1-[5-(1-trifluoromethyl-cyclopropyl)-[1,2,4]oxadiazol-3-yl]-3-aza-bicyclo[3.1.0]hex-3-yl}-methanone], the IC50 was found to be 0.003 µM. This IC50 is about 2.7-fold lower than that of the compound before.

Compound `C[C@H](Oc1ccc(S(C)(=O)=O)cc1C(=O)N1CC2CC2(c2noc(C3(C)CC3)n2)C1)C(F)(F)F` (mixture of isomers) [Example 134, [5-Methanesulfonyl-2-(2,2,2-trifluoro-1-methyl-ethoxy)-phenyl]-{1-[5-(1-methyl-cyclopropyl)-[1,2,4]oxadiazol-3-yl]-3-aza-bicyclo[3.1.0]hex-3-yl}-methanone] returned an IC50 of 0.008 µM. Against the preceding compound, the IC50 is about 2.7-fold higher. The value for `CCS(=O)(=O)c1ccc(O[C@@H](C)C(F)(F)F)c(C(=O)N2CC3CC3(c3noc(C(F)(F)F)n3)C2)c1` (mixture of isomers) [Example 40, [5-Ethanesulfonyl-2-(2,2,2-trifluoro-1-methyl-ethoxy)-phenyl]-[1-(5-trifluoromethyl-[1,2,4]oxadiazol-3-yl)-3-aza-bicyclo[3.1.0]hex-3-yl]-methanone] was 0.019 µM; that for `C[C@H](Oc1ccc(C#N)cc1C(=O)N1CC2CC2(c2noc(C(F)(F)F)n2)C1)C(F)(F)F` (mixture of isomers) [Example 88, 4-(2,2,2-Trifluoro-1-methyl-ethoxy)-3-[1-(5-trifluoromethyl-[1,2,4]oxadiazol-3-yl)-3-aza-bicyclo[3.1.0]hexane-3-carbonyl]-benzonitrile] was 0.168 µM. The compound `C[C@@H](Oc1ccc(S(C)(=O)=O)cc1C(=O)N1CC2CC2(c2nccc(C(F)(F)F)n2)C1)C(F)(F)F` (single isomer, unassigned) [Example 19, [5-Methanesulfonyl-2-(2,2,2-trifluoro-1-methyl-ethoxy)-phenyl]-[1-(4-trifluoromethyl-pyrimidin-2-yl)-3-aza-bicyclo[3.1.0]hex-3-yl]-methanone] came in with an IC50 of 0.005 µM.

`CCS(=O)(=O)c1ccc(O[C@H](C)C(F)(F)F)c(C(=O)N2CC3CC3(c3cc(C(F)(F)F)on3)C2)c1` (mixture of isomers) [Example 105, [5-Ethanesulfonyl-2-(2,2,2-trifluoro-1-methyl-ethoxy)-phenyl]-[1-(5-trifluoromethyl-isoxazol-3-yl)-3-aza-bicyclo[3.1.0]hex-3-yl]-methanone] returned a concentration for half-maximal inhibition (IC50) of 0.007 µM. The compound `C[C@H](Oc1ccc(S(C)(=O)=O)cc1C(=O)N1CC2(C)CC2(c2noc(C(F)(F)F)n2)C1)C(F)(F)F` (single isomer, unassigned) [Example 158, [5-Methanesulfonyl-2-(2,2,2-trifluoro-1-methyl-ethoxy)-phenyl]-[1-methyl-5-(5-trifluoromethyl-[1,2,4]oxadiazol-3-yl)-3-aza-bicyclo[3.1.0]hex-3-yl]-methanone] had a half-maximal inhibitory concentration (IC50) of 0.085 µM. The value for `C[C@@H](Oc1ccc(S(C)(=O)=O)cc1C(=O)N1CC2CC2(c2noc(C3CC3)n2)C1)C(F)(F)F` (single isomer, unassigned) [Example 44, [1-(5-Cyclopropyl-[1,2,4]oxadiazol-3-yl)-3-aza-bicyclo[3.1.0]hex-3-yl]-[5-methanesulfonyl-2-(2,2,2-trifluoro-1-methyl-ethoxy)-phenyl]-methanone] was 0.397 µM; that for `Cc1c(C23CC2CN(C(=O)c2cc(S(C)(=O)=O)ccc2O[C@H](C)C(F)(F)F)C3)noc1C(F)(F)F` (single isomer, unassigned) [Example 162] was 0.387 µM. For the compound `C[C@H](Oc1ccc(S(C)(=O)=O)cc1C(=O)N1CC2CC2(c2noc(C3(C(F)(F)F)CC3)n2)C1)C(F)(F)F` (single isomer, unassigned) [Example 66, [5-Methanesulfonyl-2-(2,2,2-trifluoro-1-methyl-ethoxy)-phenyl]-{1-[5-(1-trifluoromethyl-cyclopropyl)-[1,2,4]oxadiazol-3-yl]-3-aza-bicyclo[3.1.0]hex-3-yl}-methanone], the IC50 was found to be 0.004 µM. The value for `CS(=O)(=O)c1ccc(O[C@@H]2CCOC2)c(C(=O)N2CC3CC3(c3noc(C(F)(F)F)n3)C2)c1` (single isomer, unassigned) [Example 140, [5-Methanesulfonyl-2-(tetrahydro-furan-3-yloxy)-phenyl]-[1-(5-trifluoromethyl-[1,2,4]oxadiazol-3-yl)-3-aza-bicyclo[3.1.0]hex-3-yl]-methanone] was 3 µM. `CCS(=O)(=O)c1ccc(O[C@@H](C)C(F)(F)F)c(C(=O)N2CC3CC3(c3cc(C(F)(F)F)on3)C2)c1` (single isomer, unassigned) [Example 103, [5-Ethanesulfonyl-2-(2,2,2-trifluoro-1-methyl-ethoxy)-phenyl]-[1-(5-trifluoromethyl-isoxazol-3-yl)-3-aza-bicyclo[3.1.0]hex-3-yl]-methanone] showed an IC50 of 0.007 µM. `CC(C)COc1ccc(S(C)(=O)=O)cc1C(=O)N1CC2CC2(c2noc(C(F)(F)F)n2)C1` (racemic) [Example 95, (2-Isobutoxy-5-methxnesulfonyl-phenyl)-[1-(5-trifluoromethyl-[1,2,4]oxadiazol-3-yl)-3-aza-bicyclo[3.10]hex-3-yl]-methanone] gave an IC50 of 0.131 µM.

As for `Cc1noc(C23CC2CN(C(=O)c2cc(S(C)(=O)=O)ccc2O[C@@H](C)C(F)(F)F)C3)n1` (mixture of isomers) [Example 34, [5-Methanesulfonyl-2-(2,2,2-trifluoro-1-methyl-ethoxy)-phenyl]-[1-(3-methyl-[1,2,4]oxadiazol-5-yl)-3-aza-bicyclo[3.1.0]hex-3-yl]-methanone], the 50% inhibitory concentration (IC50) stood at 0.098 µM.

`CC1(C)Cc2cc(S(C)(=O)=O)cc(C(=O)N3CC4CC4(c4noc(C(F)(F)F)n4)C3)c2O1` (racemic) [Example 99, (5-Methanesulfonyl-2,2-dimethyl-2,3-dihydro-benzofuran-7-yl)-[1-(5-trifluoromethyl-[1,2,4]oxadiazol-3-yl)-3-aza-bicyclo[3.1.0]-3-yl]-methanone] came in with an IC50 of 0.291 µM. `C[C@H](Oc1ccc(S(C)(=O)=O)cc1C(=O)N1CC2CC2(c2noc(C3CC3)n2)C1)C(F)(F)F` (single isomer, unassigned) [Example 11, [1-(5-Cyclopropyl-[1,2,4]oxadiazol-3-yl)-3-aza-bicyclo[3.1.0]hex-3-yl]-[5-methanesulfonyl-2-(2,2,2-trifluoro-1-methyl-ethoxy)-phenyl]-methanone]: the IC50 came to 0.175 µM.

On to `C[C@@H](Oc1ccc(S(C)(=O)=O)cc1C(=O)N1CC2CC2(c2nccc(C(F)(F)F)n2)C1)C(F)(F)F` (single isomer, unassigned) [Example 18, [5-Methanesulfonyl-2-(2,2,2-trifluoro-1-methyl-ethoxy)-phenyl]-[1-(4-trifluoromethyl-pyrimidin-2-yl)-3-aza-bicyclo[3.1.0]hex-3-yl]-methanone], for which 0.106 µM corresponded to half-maximal inhibition (IC50). In turn, `COC1(c2nc(C34CC3CN(C(=O)c3cc(S(C)(=O)=O)ccc3O[C@H](C)C(F)(F)F)C4)no2)CC1` (single isomer, unassigned) [Example 120, [5-Methanesulfonyl-2-(2,2,2-trifluoro-1-methyl-ethoxy)-phenyl]-{1-[5-(1-methoxy-cyclopropyl)-[1,2,4]oxadiazol-3-yl]-3-aza-bicyclo[3.1.0]hex-3-yl}-methanone] returned an IC50 of 0.006 µM.
